# Measured values taken from PMC8286840, “Identifying SARS-CoV-2 antiviral compounds by screening for small molecule inhibitors of Nsp3 papain-like protease” (Biochemical Journal, 2021).
# Structures can show the parent of a compound that is named as a salt. Where two headings read alike, the source gives them in different places.
# Experiments:
# [1] = molecular target: T1, SARS-CoV-2 PLpro (nsp3 1564–1878) (Severe acute respiratory syndrome coronavirus 2, UniProt P0DTD1); assay: biochemical; parameters: FRET-quenched peptide (Pro3) cleavage by PLpro, 10 min pre-incubation, slope over 20 min, normalised to no-compound control; conditions: high concentration screen, read-out: % of control remaining
# [2] = molecular target: T1, SARS-CoV-2 PLpro (nsp3 1564–1878); assay: biochemical; parameters: FRET-quenched peptide (Pro3) cleavage by PLpro, 10 min pre-incubation, slope over 20 min, normalised to no-compound control; conditions: low concentration screen, read-out: % of control remaining
compound,measurement,setting,value
CCCCCCC[N+](CC)(CC)CCCCc1ccc(Cl)cc1 [Clofilium tosylate],remaining activity at 3.75 µM,[1]; Well no.=6882,90.5%
same,remaining activity at 1.25 µM,[2]; Well no.=6882,91.1%
Cc1nc2c([nH]1)c(=O)n(C)c(=O)n2Cc1ccco1 [Furafylline],remaining activity at 3.75 µM,[1]; Well no.=665,92.2%
same,remaining activity at 3.75 µM,[1]; Well no.=1544,100%
same,remaining activity at 1.25 µM,[2]; Well no.=665,95.4%
same,remaining activity at 1.25 µM,[2]; Well no.=1544,97.6%
"C=C[C@]1(C)C[C@@H](OC(=O)CO)[C@]2(C)[C@H](C)CC[C@]3(CCC(=O)[C@H]32)[C@@H](C)[C@@H]1O [(3aR,4R,5R,7S,8S,9R,9aS,12R)-8-hydroxy-4,7,9,12-tetramethyl-3-oxo-7-vinyldecahydro-4,9a-propanocyclopenta[8]annulen-5-yl 2-hydroxyacetate]",remaining activity at 3.75 µM,[1]; Well no.=5764,97.7%
same,remaining activity at 1.25 µM,[2]; Well no.=5764,97.1%
"O=c1[nH]ccc2c(O)cccc12 [1,5-Isoquinolinediol]",remaining activity at 3.75 µM,[1]; Well no.=827,99.5%
same,remaining activity at 1.25 µM,[2]; Well no.=827,97.8%
"O=C(O)Cc1ccc(O)c(O)c1 [3,4-Dihydroxybenzeneacetic acid]",remaining activity at 3.75 µM,[1]; Well no.=6355,106%
same,remaining activity at 1.25 µM,[2]; Well no.=6355,104%
O=C(COc1ccc(C(=O)c2ccccc2)cc1)NC1CCN(Cc2ccccc2)CC1 [2-(4-benzoylphenoxy)-N-(1-benzyl-4-piperidinyl)acetamide],remaining activity at 3.75 µM,[1]; Well no.=5650,98.9%
same,remaining activity at 1.25 µM,[2]; Well no.=5650,101%
C[C@]12CCC(=O)C=C1CC[C@@H]1[C@@H]2[C@@H](O)C[C@@]2(C)[C@H]1CC[C@]2(O)C(=O)COC(=O)CCC(=O)O [Hydrocortisone 21-hemisuccinate sodium],remaining activity at 3.75 µM,[1]; Well no.=704,93.3%
same,remaining activity at 1.25 µM,[2]; Well no.=704,92.7%
CCCN(CCC)C1CCc2ccc(O)cc2C1 (racemic),remaining activity at 3.75 µM,[1]; Well no.=662,94.8%
same,remaining activity at 1.25 µM,[2]; Well no.=662,94.1%
C[C@@H]1C[C@H]2CC[C@H](O2)[C@H](C)C(=O)O[C@@H](C)C[C@@H]2CC[C@@H](O2)[C@@H](C)C(=O)O[C@H](C)C[C@H]2CC[C@H](O2)[C@H](C)C(=O)O[C@@H](C)C[C@@H]2CC[C@@H](O2)[C@@H](C)C(=O)O1 [Nonactin],remaining activity at 3.75 µM,[1]; Well no.=3330,94.1%
same,remaining activity at 1.25 µM,[2]; Well no.=3330,95.5%
Cc1ccc(Nc2nccc(N(C)c3ccc4c(C)n(C)nc4c3)n2)cc1S(N)(=O)=O [Pazopanib HCl],remaining activity at 3.75 µM,[1]; Well no.=4613,107%
same,remaining activity at 1.25 µM,[2]; Well no.=4613,110%
C[N+]1(CCCCC[N+]2(C)CCCC2)CCCC1 [Pentolinium di[L(+)-tartrate]],remaining activity at 3.75 µM,[1]; Well no.=810,96.3%
same,remaining activity at 1.25 µM,[2]; Well no.=810,96.7%
Cc1ccc(S(=O)(=O)N2c3ccccc3Oc3ccccc32)cc1 [10-[(4-methylphenyl)sulfonyl]-10H-phenoxazine],remaining activity at 3.75 µM,[1]; Well no.=6041,96.7%
same,remaining activity at 1.25 µM,[2]; Well no.=6041,96.2%
CCNC(=O)c1cc2c(-c3cc(OCCN4CCCC4)c(Cl)cc3Cl)nc(N)nc2s1 [NVP-BEP800],remaining activity at 3.75 µM,[1]; Well no.=4917,95.1%
same,remaining activity at 1.25 µM,[2]; Well no.=4917,93.5%
CCCCC[C@H](O)/C=C/[C@H]1[C@H](O)CC(=O)[C@@H]1CCCCCCC(=O)O [Prostaglandin E1],remaining activity at 3.75 µM,[1]; Well no.=2192,91.2%
same,remaining activity at 3.75 µM,[1]; Well no.=3090,97%
same,remaining activity at 3.75 µM,[1]; Well no.=4473,101%
same,remaining activity at 3.75 µM,[1]; Well no.=4475,94.7%
same,remaining activity at 3.75 µM,[1]; Well no.=8109,95%
same,remaining activity at 1.25 µM,[2]; Well no.=2192,92.3%
same,remaining activity at 1.25 µM,[2]; Well no.=3090,95.3%
same,remaining activity at 1.25 µM,[2]; Well no.=4473,103%
same,remaining activity at 1.25 µM,[2]; Well no.=4475,93.1%
same,remaining activity at 1.25 µM,[2]; Well no.=8109,91.2%
O=c1cc(CN2CCOCC2)occ1OCCCCCSc1ccnc2cc(C(F)(F)F)ccc12 [EHT 1864],remaining activity at 3.75 µM,[1]; Well no.=8435,90.8%
same,remaining activity at 1.25 µM,[2]; Well no.=8435,93.5%
COc1ccc2c(c1OC)C(=O)O[C@@H]2[C@H]1c2c(cc3c(c2OC)OCO3)CCN1C [Noscapine hydrchloride],remaining activity at 3.75 µM,[1]; Well no.=957,95.4%
same,remaining activity at 1.25 µM,[2]; Well no.=957,93%
NC(N)=NCCC[C@H](N)C(=O)NCC(=O)N[C@@H](CC(=O)O)C(=O)N[C@@H](CO)C(=O)O [Arg-Gly-Asp-Ser],remaining activity at 3.75 µM,[1]; Well no.=7938,95.3%
same,remaining activity at 1.25 µM,[2]; Well no.=7938,95.5%
O=c1[nH]c(=O)n([C@H]2C[C@H](O)[C@@H](CO)O2)cc1Cl [5-Chloro-2'-deoxyuridine],remaining activity at 3.75 µM,[1]; Well no.=7814,102%
same,remaining activity at 1.25 µM,[2]; Well no.=7814,101%
O=[N+]([O-])c1ncc[nH]1 [Azomycin],remaining activity at 3.75 µM,[1]; Well no.=3571,103%
same,remaining activity at 1.25 µM,[2]; Well no.=3571,109%
CN1CCN(c2nc3cc(C(F)(F)F)ccc3n3cccc23)CC1 [CGS-12066A maleate],remaining activity at 3.75 µM,[1]; Well no.=437,101%
same,remaining activity at 1.25 µM,[2]; Well no.=437,102%
CC#C[C@@H](CC(=O)O)c1ccc(OCc2cccc(-c3ccc(C(F)(F)F)cc3)c2)cc1 [AMG 837 (calcium hydrate)],remaining activity at 3.75 µM,[1]; Well no.=6944,95.6%
same,remaining activity at 1.25 µM,[2]; Well no.=6944,98.4%
CCNC(=O)[C@H]1O[C@@H](n2cnc3c(N)nc(NCCc4ccc(CCC(=O)O)cc4)nc32)[C@H](O)[C@@H]1O [CGS-21680 hydrochloride],remaining activity at 3.75 µM,[1]; Well no.=391,99.7%
same,remaining activity at 1.25 µM,[2]; Well no.=391,105%
CN1CCN2c3c(cccc31)[C@@H]1CN(CCCC(=O)c3ccc(F)cc3)CC[C@@H]12 [lumateperone (Tosylate)],remaining activity at 3.75 µM,[1]; Well no.=7807,108%
same,remaining activity at 1.25 µM,[2]; Well no.=7807,104%
O=S(=O)(Nc1ccc(C(O)(C(F)(F)F)C(F)(F)F)cc1)c1cccs1 [SR3335],remaining activity at 3.75 µM,[1]; Well no.=8457,107%
same,remaining activity at 1.25 µM,[2]; Well no.=8457,110%
CCCCCCCCCCCCCCCC(=O)OC(CC(=O)O)C[N+](C)(C)C (racemic) [Palmitoyl-DL-Carnitine chloride],remaining activity at 3.75 µM,[1]; Well no.=1098,85.4%
same,remaining activity at 1.25 µM,[2]; Well no.=1098,86.5%
C[N+]1(C)CCC(OC(=O)C(O)(c2ccccc2)C2CCCC2)C1 (stereo not drawn) [Glycopyrrolate],remaining activity at 3.75 µM,[1]; Well no.=7471,103%
same,remaining activity at 1.25 µM,[2]; Well no.=7471,102%
OCCN1CCN(CCCN2c3ccccc3Sc3ccc(Cl)cc32)CC1 [Perphenazine],remaining activity at 3.75 µM,[1]; Well no.=1006,99.2%
same,remaining activity at 3.75 µM,[1]; Well no.=6319,99.7%
same,remaining activity at 1.25 µM,[2]; Well no.=1006,98.7%
same,remaining activity at 1.25 µM,[2]; Well no.=6319,104%
COC[C@@H](c1ccc(C(F)(F)F)cc1)N1CCN(C2(C)CCN(C(=O)c3c(C)ncnc3C)CC2)C[C@@H]1C [Vicriviroc (maleate)],remaining activity at 3.75 µM,[1]; Well no.=8655,103%
same,remaining activity at 1.25 µM,[2]; Well no.=8655,106%
CC(C)(CO)[C@@H](O)C(=O)NCCC(=O)O [Pantothenic acid],remaining activity at 3.75 µM,[1]; Well no.=2288,92.3%
same,remaining activity at 1.25 µM,[2]; Well no.=2288,90.1%
COc1cc2c(cc1OC)CN(CCc1ccc(NC(=O)c3cc(OC)c(OC)cc3NC(=O)c3cnc4ccccc4c3)cc1)CC2 [Tariquidar],remaining activity at 3.75 µM,[1]; Well no.=4796,92.7%
same,remaining activity at 1.25 µM,[2]; Well no.=4796,98.7%
